Results as given in US20140360376A1, “RECOVERY OF HIGHER ALCOHOLS FROM DILUTE AQUEOUS SOLUTIONS” (GEVO, INC., priority 2007, published 2014).
Values joined by “and” are separate entries in the source; they are usually repeats but may differ in a detail not shown here. Identical values can stand only once. Like-named read-outs stand apart in the source and are kept apart here.

What was measured:
[1] = Enrichment by glucose addition followed by contact with gasoline; format: physicochemical; conditions: for Increase of alcohol concentration in the gasoline phase in the presence of glucose: compared with example 3 (no glucose); for Alcohol Wt % in heavy phase / Alcohol Wt % in light phase / Alcohol Da: gasoline, 20% (w/w) glucose, 24° C.; for Alcohol Da: light/heavy phase
Description: These solutions were then mixed with gasoline. The gasoline used was commercial grade with a 95 octane rating. At equilibrium, phase separation was observed forming an upper alcohol rich phase (light phase) and a lower alcohol lean phase (heavy phase). Both phases were analyzed for alcohol and water content. The distribution coefficient of the alcohol was calculated for each experiment by dividing the alcohol concentration in the light phase by the concentration in the heavy phase. The distribution coefficient for water was calculated accordingly. The Enrichment factor was calculated by dividing the distribution coefficient of alcohol by the distribution coefficient of water. All experiments were carried out at 24° C.

[2] = Enrichment/extraction of i-BuOH from aqueous solution by contact with 2-heptanone; format: physicochemical; conditions: 25° C.
[3] = Enrichment/extraction of i-BuOH from aqueous solution by contact with tri-butyl phosphate; format: physicochemical; conditions: 25° C.
[4] = Mutual solubility of isobutanol and water as a function of temperature; format: physicochemical; conditions: isobutanol-water
Description: First, 20 g of water were mixed with 20 g isobutanol in closed vials at room temperature. The vials were then mixed at 5, 10, 20, 40, 60 or 80° C. The vials were held at the stated temperature while being mixed until equilibrium was established. Then the samples were separated into light and heavy phases while being held at temperature. The samples from the light and the heavy phases were analyzed by HPLC and by Karl-Fischer titration.

[5] = Enrichment/extraction of i-BuOH from aqueous solution by contact with decanol; format: physicochemical; conditions: 25° C.
[6] = Contact of sub-saturated aqueous isobutanol with 3 Angstrom molecular sieve particles; format: physicochemical; conditions: 2 g sub-saturated aqueous isobutanol with 1.5 g of 3 Angstrom molecular sieve particles
Description: This example illustrates the isobutanol enrichment from aqueous isobutanol solutions using molecular sieves to adsorb water. A sub-saturated solution of isobutanol in water was prepared. Two grams of this solution were thoroughly mixed with 1.5 g of 3 Angstrom molecular sieve particles in a vial. After mixing, the vial was left to settle.

[7] = Phase separation of 7% butanol or isobutanol solutions by addition of glucose; format: physicochemical; conditions: 7% alcohol, glucose 20% (w/w), 25° C.
Description: This example illustrates the induction of phase separation of butanol or isobutanol in water solutions by addition of glucose. […] The light and heavy phases were analyzed for alcohol content for each experiment. All experiments were carried out at 25° C. The distribution coefficient was calculated by division of the concentration of butanol in the light phase by the concentration of butanol in the heavy phase.

[8] = Phase separation of 4% butanol or isobutanol solutions by addition of calcium chloride; format: physicochemical; conditions: 4% alcohol, calcium chloride 15% (w/w), 25° C.
Description: This example illustrates the induction of phase separation of butanol or isobutanol in water solutions by calcium chloride addition. […] The light and heavy phases were analyzed for alcohol content for each experiment. All experiments were carried out at 25° C. The distribution coefficient was calculated by division of the concentration of butanol in the light phase by the concentration of butanol in the heavy phase.

[9] = Enrichment by calcium chloride addition followed by contact with gasoline; format: physicochemical; conditions: for Increase of alcohol concentration in the gasoline phase in the presence of calcium chloride: compared with example 3 (no calcium chloride); for Alcohol Wt % in heavy phase / Alcohol Wt % in light phase / Alcohol Da: gasoline, 15% (w/w) calcium chloride, 24° C.; for Alcohol Da: light/heavy phase
Description: These solutions were then mixed with gasoline. The gasoline used was commercial grade with a 95 octane rating. At equilibrium, phase separation was observed, forming an upper alcohol rich phase (light phase) and a lower alcohol lean phase (heavy phase). Both phases were analyzed for alcohol and water contents. The distribution coefficient of the alcohol was calculated for each experiment by dividing the alcohol concentration in the light phase by the concentration in the heavy phase. All experiments were carried out at 24° C.

[10] = for Number of phases: aqueous propanol, 25° C.
Description: The number of liquid phases present in each mixture at 25° C. was noted.

[11] = Enrichment of C3-C6 alcohols from aqueous solutions by contact with gasoline; format: physicochemical; conditions: 24° C.
Description: The gasoline used was commercial grade with a 95 octane rating. […] Both phases were analyzed for alcohol and water content. The distribution coefficient of the alcohol was calculated for each experiment by dividing the alcohol concentration in the light phase by the concentration in the heavy phase. Similarly, the distribution coefficient for water was calculated by dividing the water concentration in the light phase by the water concentration in the heavy phase. The enrichment factor was calculated by dividing the distribution coefficient of alcohol by the distribution coefficient of water. All experiments were carried out at 24° C.

[12] = Enrichment of C3-C6 alcohols from aqueous solutions by contact with octane; format: physicochemical; conditions: 24° C.
Description: Several aqueous solutions were prepared for each alcohol, differing in their alcohol concentrations, all of which were sub-saturated. […] The phase ratio between the aqueous solution and the solvent differed from one case to the other. Mixing was continued until equilibrium was reached. At equilibrium, phase separation could be observed forming an upper, alcohol-rich phase (light phase) and a lower, alcohol-lean phase (heavy phase). Both phases were analyzed for alcohol and water content. […] The water content of the organic phases was determined by the Karl-Fischer method. These analytical methods were also used for the analyses in the other examples.
The distribution coefficient of the alcohol was calculated for each experiment by dividing the alcohol concentration in the light phase by the alcohol concentration in the heavy phase. Similarly, the distribution coefficient for water was calculated by dividing the water concentration in the light phase by the water concentration in the heavy phase. The enrichment factor was calculated by dividing the distribution coefficient of alcohol by the distribution coefficient of water. In addition, the alcohol to water ratio (w/w) was calculated for the light phase.

[13] = Phase separation of aqueous t-butanol by addition of glucose; format: physicochemical
Description: This example illustrates the induction of phase separation of t-butanol (t-BuOH) in water solution by addition of glucose. An aqueous solution of t-butanol (50% v/v) was prepared at 25° C. and glucose was added to a final concentration of 20% (w/v). […] Both phases were analyzed for t-butanol concentration. The t-BuOH and glucose concentrations in the heavy phase were about 150 g/L and about 45% w/w, respectively. The light phase had about 520 g/L of t-BuOH.

[14] = aqueous i-BuOH heavy phase, equilibrium
[15] = 50% v/v aqueous t-butanol, glucose 20% (w/v), 25° C.

CC(C)CO [i-BuOH, 2-methyl-1-propanol]
Increase of alcohol concentration in the gasoline phase in the presence of glucose [1]: 2 fold | Alcohol Wt % in heavy phase [1]: 1.4 Wt % | Alcohol Wt % in light phase [1]: 1.9 Wt % | Alcohol Da [1]: 1.36 | i-BuOH Wt % in heavy phase ([2]; 2-Heptanone, equilibrium): 1.7 Wt % and 2.0 Wt % and 0.44 Wt % | i-BuOH Wt % in light phase ([2]; 2-Heptanone, equilibrium): 5.4 Wt % and 8.4 Wt % and 1.15 Wt % | Enrichment factor ([2]; Da/Dw, 2-Heptanone): 125 and 116 and 155 | Distribution coefficient i-BuOH Da ([2]; light/heavy phase, 2-Heptanone): 3.3 and 4.1 and 2.6 | i-BuOH Wt % in heavy phase ([3]; equilibrium): 0.22 Wt % and 1.2 Wt % and 1.9 Wt % | i-BuOH Wt % in light phase ([3]; equilibrium): 1.2 Wt % and 5.6 Wt % and 9.8 Wt % | Enrichment factor ([3]; Da/Dw): 76 and 74 and 82 | Distribution coefficient i-BuOH Da ([3]; light/heavy phase): 5.4 and 4.9 and 5.2 | Isobutanol Wt % in light phase ([4]; 5° C.): 83.9 Wt % | Isobutanol Wt % in light phase ([4]; 10° C.): 84.0 Wt % | Isobutanol Wt % in light phase ([4]; 20° C.): 83.4 Wt % | Isobutanol Wt % in light phase ([4]; 40° C.): 81.5 Wt % | Isobutanol Wt % in light phase ([4]; 60° C.): 79.1 Wt % | Isobutanol Wt % in light phase ([4]; 80° C.): 76.5 Wt % | Enrichment factor ([5]; Da/Dw, decanol): 116 and 119 and 99 | i-BuOH Wt % in heavy phase ([5]; decanol, equilibrium): 1.4 Wt % and 2.2 Wt % and 0.30 Wt % | Distribution coefficient i-BuOH Da ([5]; light/heavy phase, decanol): 5.2 and 5.5 and 3.8 | Phases observed after settling [6]: two liquid phases | Alcohol in heavy phase (% w/w) [7]: 5.1 % w/w | Alcohol in light phase (% w/w) [7]: 87 % w/w | Concentration in the light phase compared to the starting solution [7]: approximately 12 fold | Distribution coefficient ([7]; light/heavy phase): 17 | Alcohol in heavy phase (% w/w) [8]: 2.9 % w/w | Alcohol in light phase (% w/w) [8]: 91 % w/w | Concentration in the light phase compared to the starting solution [8]: approximately 23 fold | Distribution coefficient ([8]; light/heavy phase): 31 | Increase of alcohol concentration in the gasoline phase in the presence of calcium chloride [9]: 4.5 fold | Alcohol Wt % in heavy phase [9]: 0.94 Wt % | Alcohol Wt % in light phase [9]: 3.3 Wt % | Alcohol Da [9]: 3.5

CCCCCCCCCCO [Decanol, decanol]
Decanol Wt % in heavy phase [5, 14]: 0.0043 Wt % and 0.0053 Wt % and 0.0020 Wt %

CCCO [PrOH, propanol]
Miscibility with water ([10]; any proportion, no additive): fully miscible with water | Number of phases ([10]; CaCl2 9.5%): 1 | Number of phases ([10]; CaCl2 15.1%): 2 | Number of phases ([10]; Glucose 40%): 1 | Number of phases ([10]; Glucose 60%): 2 | Number of phases ([10]; Sucrose 40%): 2 | Number of phases ([10]; no hydrophilic solute): 1 | Alcohol Wt % in heavy phase ([11]; equilibrium): 5.1 Wt % and 0.61 Wt % and 1.9 Wt % | Alcohol Wt % in light phase ([11]; equilibrium): 0.50 Wt % and 0.08 Wt % and 0.16 Wt % | Enrichment factor ([11]; Da/Dw): >200 and >240 and >160 | Alcohol Wt % in heavy phase ([12]; equilibrium): 1.9 Wt % and 5.7 Wt % and 0.66 Wt % | Alcohol Wt % in light phase ([12]; equilibrium): 0.07 Wt % and 0.24 Wt % and 0.03 Wt % | Enrichment factor ([12]; Da/Dw): >80 and >100

CC(C)(C)O [t-BuOH, 2-methyl-2-propanol]
Enrichment in the light phase compared to the heavy phase (factor) [13, 15]: about 3.5 | t-BuOH concentration in the heavy phase [13, 15]: about 150 g/L | t-BuOH concentration in the light phase [13, 15]: about 520 g/L | Miscibility with water ([13]; any proportion, no additive): fully miscible with water

CCCCCC(C)=O [2-Heptanone]
2-Heptanone Wt % in heavy phase [2, 14]: 0.34 Wt % and 0.29 Wt % and 0.40 Wt %

CCCCCO [PenOH, n-Pentanol]
Increase of alcohol concentration in the gasoline phase in the presence of glucose [1]: greater than 10 fold | Alcohol Wt % in heavy phase [1]: 0.16 Wt % | Alcohol Wt % in light phase [1]: 3.4 Wt % | Alcohol Da [1]: 21 | Increase of alcohol concentration in the gasoline phase in the presence of calcium chloride [9]: greater than 10 fold | Alcohol Wt % in heavy phase [9]: 0.14 Wt % | Alcohol Wt % in light phase [9]: 2.2 Wt % | Alcohol Da [9]: 15
